# Legend:
# [1] = Ethanol release testing at 100 rpm paddle speed (Example 29); type: physicochemical; details: release from the formulation
# hepatic GSH = details: mice; 100 mg/kg to 600 mg/kg; cited from earlier work
smiles,measurement,setting,value
CC(=O)Nc1ccc(O)cc1 [acetaminophen],"Percent Release, Mean","[1]; 0% Ethanol, 15 Min",52.2%
same,"Percent Release, Mean","[1]; 0% Ethanol, 30 Min",54.6%
same,"Percent Release, Mean","[1]; 0% Ethanol, 45 Min",56.8%
same,"Percent Release, Mean","[1]; 0% Ethanol, 60 Min",58.8%
same,"Percent Release, Mean","[1]; 0% Ethanol, 75 Min",60.8%
same,"Percent Release, Mean","[1]; 0% Ethanol, 90 Min",62.6%
same,"Percent Release, Mean","[1]; 0% Ethanol, 105 Min",64.3%
same,"Percent Release, Mean","[1]; 0% Ethanol, 120 Min",66.0%
same,"Percent Release, Mean","[1]; 0% Ethanol, 240 Min",78.6%
same,"Percent Release, Mean","[1]; 0% Ethanol, 480 Min",95.5%
same,"Percent Release, Mean","[1]; 5% Ethanol, 15 Min",52.6%
same,"Percent Release, Mean","[1]; 5% Ethanol, 30 Min",55.1%
same,"Percent Release, Mean","[1]; 5% Ethanol, 45 Min",57.1%
same,"Percent Release, Mean","[1]; 5% Ethanol, 60 Min",58.9%
same,"Percent Release, Mean","[1]; 5% Ethanol, 75 Min",60.7%
same,"Percent Release, Mean","[1]; 5% Ethanol, 90 Min",62.3%
same,"Percent Release, Mean","[1]; 5% Ethanol, 105 Min",63.9%
same,"Percent Release, Mean","[1]; 5% Ethanol, 120 Min",65.5%
same,"Percent Release, Mean","[1]; 5% Ethanol, 240 Min",77.2%
same,"Percent Release, Mean","[1]; 5% Ethanol, 480 Min",94.4%
same,"Percent Release, Mean","[1]; 10% Ethanol, 15 Min",51.7%
same,"Percent Release, Mean","[1]; 10% Ethanol, 30 Min",54.1%
same,"Percent Release, Mean","[1]; 10% Ethanol, 45 Min",56.0%
same,"Percent Release, Mean","[1]; 10% Ethanol, 60 Min",57.8%
same,"Percent Release, Mean","[1]; 10% Ethanol, 75 Min",59.5%
same,"Percent Release, Mean","[1]; 10% Ethanol, 90 Min",61.1%
same,"Percent Release, Mean","[1]; 10% Ethanol, 105 Min",62.6%
same,"Percent Release, Mean","[1]; 10% Ethanol, 120 Min",64.1%
same,"Percent Release, Mean","[1]; 10% Ethanol, 240 Min",75.5%
same,"Percent Release, Mean","[1]; 10% Ethanol, 480 Min",93.5%
same,"Percent Release, Mean","[1]; 20% Ethanol, 15 Min",50.2%
same,"Percent Release, Mean","[1]; 20% Ethanol, 30 Min",53.4%
same,"Percent Release, Mean","[1]; 20% Ethanol, 45 Min",55.5%
same,"Percent Release, Mean","[1]; 20% Ethanol, 60 Min",57.3%
same,"Percent Release, Mean","[1]; 20% Ethanol, 75 Min",59.0%
same,"Percent Release, Mean","[1]; 20% Ethanol, 90 Min",60.5%
same,"Percent Release, Mean","[1]; 20% Ethanol, 105 Min",61.9%
same,"Percent Release, Mean","[1]; 20% Ethanol, 120 Min",63.3%
same,"Percent Release, Mean","[1]; 20% Ethanol, 240 Min",76.0%
same,"Percent Release, Mean","[1]; 20% Ethanol, 480 Min",91.9%
same,"Percent Release, Mean","[1]; 40% Ethanol, 15 Min",16.7%
same,"Percent Release, Mean","[1]; 40% Ethanol, 30 Min",30.4%
same,"Percent Release, Mean","[1]; 40% Ethanol, 45 Min",38.5%
same,"Percent Release, Mean","[1]; 40% Ethanol, 60 Min",43.1%
same,"Percent Release, Mean","[1]; 40% Ethanol, 75 Min",46.1%
same,"Percent Release, Mean","[1]; 40% Ethanol, 90 Min",48.3%
same,"Percent Release, Mean","[1]; 40% Ethanol, 105 Min",49.8%
same,"Percent Release, Mean","[1]; 40% Ethanol, 120 Min",51.1%
same,"Percent Release, Mean","[1]; 40% Ethanol, 240 Min",60.8%
same,"Percent Release, Mean","[1]; 40% Ethanol, 480 Min",77.2%
same,Onset of circulating hepatic GSH changes after administration,hepatic GSH,≤ 15 min
